# Source: US20070293544A1, “Novel 4-Arylamino Pyridone Derivatives as Mek Inhibitors for the Treatment of Hyper-Proliferative Disorders” (priority 2004, published 2007)
# Tests used:
# [1] = test system: human melanoma Mel5 cells; test: Tumor cell proliferation assay (ATP Lite), Mel5; format: cell-based; settings: 4 days incubation
# Experimental: (§1) Assay 2: Tumor Cell Proliferation Assays (ATP Lite)
# (§2) Murine colon C26, human melanoma A375 and human melanoma Mel5 cells were plated in 96 well Corning white plates (1500 cells/well for C26, and 2000 cells/well for A375, and MiaPaCa-2) and cultured overnight at 37° C. in 5% CO2. Inhibitors were serially diluted in 100% DMSO and subsequently added to cells to reach a final concentration of 0.25% DMSO. The cells were incubated for 4 days in the presence of test compounds in cell growth media (DMEM with 10% fetal bovine serum, 2 mM glutamine for C26, and MiaPaCa-2, and RPMI with 10% fetal bovine serum, 2 mM glutamine for A375). Cell proliferation was quantitated using the ATP lite cell proliferation kit (Packard). Columns 2-4 show the concentration of compounds required to induce 50% cell death (IC50 in μM) of […]. With “+” meaning 100 μM<IC50≦10 μM and “++” IC50≦1 μM and “n.d.” means not determined.
# Murine colon C26 cells = test: Tumor cell proliferation assay (ATP Lite), C26; format: cell-based; settings: 4 days incubation
# Experimental: as §1, §2
# human MEK1 = human MEK1 (Homo sapiens, UniProt Q02750); test: Inhibition of human MEK1 kinase activity, time resolved fluorescence resonance energy transfer assay; format: biochemical; settings: 100 nM MEK1, 15 μM ATP, 300 nM ERK2, two hours
# Sequence of human MEK1 (Q02750 whole entry): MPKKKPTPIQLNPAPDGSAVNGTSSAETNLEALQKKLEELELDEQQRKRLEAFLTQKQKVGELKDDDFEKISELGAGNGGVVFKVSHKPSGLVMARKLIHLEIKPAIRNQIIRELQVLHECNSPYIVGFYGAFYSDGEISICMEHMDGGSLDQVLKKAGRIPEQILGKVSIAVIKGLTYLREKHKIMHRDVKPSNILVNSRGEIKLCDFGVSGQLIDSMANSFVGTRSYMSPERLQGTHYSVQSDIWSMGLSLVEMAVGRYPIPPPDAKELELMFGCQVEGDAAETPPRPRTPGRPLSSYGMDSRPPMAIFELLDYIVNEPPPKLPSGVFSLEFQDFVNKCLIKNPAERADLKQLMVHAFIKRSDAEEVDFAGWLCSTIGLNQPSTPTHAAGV
# Experimental: The activity of the compounds of the present invitation may be determined by the following procedure: Inhibition of human MEK1 kinase activity was monitored with a homogenous, fluorescence based assay. The assay uses time resolved fluorescence resonance energy transfer to probe for phosphorylation of […] by MEK1. The assay is carried out in low volume 96 well microtiterplates. In a total volume of 15 μl, compounds are incubated with 100 nM MEK1, 15 μM ATP, 300 nM ERK2 employing a buffer containing 20 mM TRIS/HCl, 10 mM MgCl2, 100 μM NaVO4, 1 mM DTT, and 0.005% Tween 20 (pH 7.4). After two hours, 5 nM Europium-anti-PY20 (Perkin Elmer) and 50 nM Anti-GST-Allophycocyanin (CisBio) in buffer containing 50 mM EDTA and 0,05% BSA are added and the reaction incubated for one hour in the dark. Time-resolved fluorescence is measured using a LJL-Analyst (Molecular Devices) with an excitation wavelength of 340 nm and an emission wavelength of 665 nm. The final concentration of DMSO is 2%. To assess the inhibitory potential of the compounds, IC50-values were determined.
# [2] = test system: human melanoma A375 cells; test: Tumor cell proliferation assay (ATP Lite), A375; format: cell-based; settings: 4 days incubation
# Experimental: as §1, §2
# [3] = Microsomal stability assay, rat liver microsomes; format: in vitro ADME; settings: male, Sprague Dawley, pooled rat liver microsomes, pH 7.4; 3 μM compound, 0.5 mg/ml rat liver microsomes, 37° C., 2 mM NADPH; read-out: RLM t½
# Experimental: (§3) Assay 3: Microsomal Stability Assay
# (§4) Compounds were tested on their stability in human, rat and mouse liver microsomal preparations (HLM, RLM and MLM respectively). At a final concentration of 3 μM, compounds were incubated at 37° C. with 0.5 mg/ml human, rat or mouse liver microsomes in a buffer containing 50 mM phosphate, pH 7.4 and 2 mM NADPH. Pooled human liver microsomes or pooled male rat liver microsomes (Sprague Dawley) were obtained from NatuTec (Frankfurt, Germany). Incubations without NADPH served as negative controls. Reactions were stopped after 0, 15, 30, 45 or 60 min by the addition of acetonitrile and microsomes were pelleted by centrifugation (10 min at 6200× g). Supernatants were analyzed by HPLC regarding the concentration of mother compound. Finally, the half-life of compounds in the regarding microsomal preparation was calculated.
# [4] = Microsomal stability assay, human liver microsomes; format: in vitro ADME; settings: pooled human liver microsomes, pH 7.4; 3 μM compound, 0.5 mg/ml human liver microsomes, 37° C., 2 mM NADPH; read-out: HLM t½
# Experimental: as §3, §4
# Tumors = settings: patients; cited from earlier work
# [5] = in vivo; cited from earlier work
Mel5 cells IC50 [1],C26 cells IC50 (Murine colon C26 cells),IC50 (human MEK1) [µM],A375 cells IC50 [2],half-life at 3 μM [3] [h],half-life at 3 μM [4] [h],Compound,efficacy in clinical phase II trials (Tumors),bioavailability [5]
+ (100 μM<IC50≦10 μM),+ (100 μM<IC50≦10 μM),≤ 1,+ (100 μM<IC50≦10 μM),–,–,"Cc1cc(Br)ccc1Nc1cc(=O)n(C)cc1C(=O)O [Compound 3a, 4-(4-Bromo-2-methyl-phenylamino)-1-methyl-6-oxo-1,6-dihydro-pyridine-3-carboxylic acid]",–,–
+ (100 μM<IC50≦10 μM),+ (100 μM<IC50≦10 μM),≤ 1,+ (100 μM<IC50≦10 μM),–,–,"Cc1cc(Br)ccc1Nc1cc(=O)n(C)cc1C(=O)NO [Compound 4a, 4-(4-Bromo-2-methyl-phenylamino)-1-methyl-6-oxo-1,6-dihydro-pyridine-3-carboxylic acid hydroxyamide]",–,–
–,+ (100 μM<IC50≦10 μM),≤ 1,+ (100 μM<IC50≦10 μM),> 2,> 2,"Cc1cc(I)ccc1Nc1cc(=O)n(C)cc1C(=O)NOC[C@@H](O)CO [Compound 4c, 4-[(4-Iodo-2-methylphenyl)amino]-N-{[(2S)-2,3-dihydroxypropyl]oxy}-1-methyl-6-oxo-1,6-dihydropyridine-3-carboxamide]",–,–
–,–,≤ 1,–,–,–,"Cc1cc(I)ccc1Nc1cc(=O)n(C)cc1C(=O)O [Compound 3b, 4-(4-Iodo-2-methyl-phenylamino)-1-methyl-6-oxo-1,6-dihydro-pyridine-3-carboxylic acid]",–,–
+ (100 μM<IC50≦10 μM),+ (100 μM<IC50≦10 μM),≤ 1,+ (100 μM<IC50≦10 μM),> 2,> 2,"Cc1cc(Br)ccc1Nc1cc(=O)n(C)cc1C(=O)NOC[C@@H](O)CO [Compound 4b, 4-[(4-Bromo-2-methylphenyl)amino]-N-{[(2S)-2,3-dihydroxypropyl]oxy}-1-methyl-6-oxo-1,6-dihydropyridine-3-carboxamide]",–,–
–,–,≤ 1,–,0.517 to 2,0.517 to 2,"C=CCNc1nnc(-c2cn(C)c(=O)cc2Nc2ccc(Br)cc2C)o1 [Compound 7a, 5-(5-Allylamino-[1,3,4]oxadiazol-2-yl)-4-(4-bromo-2-methyl-phenylamino)-1-methyl-1H-pyridin-2-one]",–,–
–,–,–,–,–,–,O=C(NOCC1CC1)c1ccc(F)c(F)c1Nc1ccc(I)cc1Cl [PD-184352],lacking efficacy,low
